The values below come from BindingDB's records for patent US20240307415 (Jiangsu Simcere Pharmaceutical, 2024).

In this experiment the target is T1, Glucocorticoid receptor (Homo sapiens, UniProt P04150).
T1 sequence (P04150 whole entry): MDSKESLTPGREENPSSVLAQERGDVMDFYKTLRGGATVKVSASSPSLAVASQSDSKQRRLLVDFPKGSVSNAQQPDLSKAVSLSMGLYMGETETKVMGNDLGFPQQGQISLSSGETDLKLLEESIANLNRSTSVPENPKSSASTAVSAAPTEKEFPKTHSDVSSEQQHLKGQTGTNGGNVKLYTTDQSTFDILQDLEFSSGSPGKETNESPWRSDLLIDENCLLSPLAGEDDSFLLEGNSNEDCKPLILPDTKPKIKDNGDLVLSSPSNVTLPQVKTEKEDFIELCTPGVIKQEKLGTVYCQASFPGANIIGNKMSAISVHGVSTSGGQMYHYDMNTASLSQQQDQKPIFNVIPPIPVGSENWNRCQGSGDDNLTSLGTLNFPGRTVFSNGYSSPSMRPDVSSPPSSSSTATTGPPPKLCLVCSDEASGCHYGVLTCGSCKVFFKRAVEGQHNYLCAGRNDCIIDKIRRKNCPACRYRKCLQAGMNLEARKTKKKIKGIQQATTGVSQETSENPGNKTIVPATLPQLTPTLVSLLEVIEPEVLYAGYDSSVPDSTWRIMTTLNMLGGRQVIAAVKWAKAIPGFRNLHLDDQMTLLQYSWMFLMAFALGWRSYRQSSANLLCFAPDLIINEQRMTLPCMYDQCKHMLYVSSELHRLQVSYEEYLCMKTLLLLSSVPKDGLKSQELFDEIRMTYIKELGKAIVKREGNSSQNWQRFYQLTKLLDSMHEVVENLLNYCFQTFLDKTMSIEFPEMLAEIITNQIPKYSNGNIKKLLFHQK
Kind of experiment: Binding Activity of Compound of the Present Invention to Glucocorticoid Receptor GR. The procedure: The binding activity of the compound to GR was determined using the Polarscreen Glucocorticoid Receptor Assay Kit, Red (brand: Thermo, Cat. No: A15898). […] The highest concentration was 100 μM, 8 concentrations in total.

Usually EC50 stands for the concentration needed to bring the measured effect to its halfway point. In the case of `C[C@]12C=CC(=O)C=C1CC[C@@H]1[C@@H]2[C@@H](O)C[C@@]2(C)[C@H]1C[C@H]1O[C@@H](c3ccc(Cc4ccc5cc[nH]c5c4)cc3)O[C@]12C(=O)CO` [US20240307415, Compound 003], it took 121 nM to reach a half-maximal effect (EC50).
